# Test results published in ChEMBL document CHEMBL3507680, “University of Dundee, Gates Library screen for HepG2 cell viability”.
# Assay: Human HepG2 cell viability assay in 384 well format
# Type: toxicity, cell-based
# Design: dose 125 nL, time 70.5 hour; concentration not given beside the values
# Settings: HepG2 cells, read-out: Inhibition
row,SMILES,cytotoxicity at 70.5 h [%]
1,Cc1nc(C)c(C(=O)NCCn2nc3ccccn3c2=O)s1,-1.89
2,Cc1nc2ccccc2nc1CN1CCCC1c1c(C)nn(C)c1C (centres undefined),-4.26
3,COCCn1cnnc1C1CCCN(c2cnccn2)C1 (centres undefined),-5.97
4,Brc1ccc(CNCc2nnc3n2CCC3)s1,14.8
5,O=C(O)c1c(-c2cncnc2)ncc2c1CCN(CC1CCOC1)C2 (centres undefined),-4.73
6,COc1cc(C#N)ccc1OC12CCCN(CC1)C2 (centres undefined),-8.26
7,COc1ccc(C(=O)NC2CC2)c(OC2CCN(C(C)CO)CC2)c1 (centres undefined),0.736
8,Cc1ccc(CC(=O)N2CCN(C3CCOC3=O)CC2)cc1 (centres undefined),-1.49
9,O=C(NCc1cscn1)NC1CCN(c2ncccc2Cl)C1 (centres undefined),-2.49
10,CC(C)c1nnc2n1CCN(C(=O)CN1CCc3sccc3C1)C2,-4.56
11,Cc1cc(CN(C)C(=O)NCc2cccc(N3CCCC3=O)c2)no1,-25.6
12,Cn1cc(C2CCCN2Cc2csc(C3CCCC3)n2)cn1 (centres undefined),0.499
13,COCCNC(=O)c1cc(C2CC2)nc2onc(C3CCNC3)c12 (centres undefined),-7.31
14,Cc1cc(C(=O)N2C[C@@H]3COC[C@]3(CN(C)C)C2)sc1C,-11.8
15,CCCN1CCN(C(=O)Cc2cccnc2)[C@H]2CS(=O)(=O)C[C@H]21,11.9
16,O=C(CC1CCCC1)N1C[C@@H]2CCN(c3cccnc3)C[C@@H]2C1,-7.38
17,CC(C)(C)C(=O)N1CCC(c2cnc(-c3cn[nH]c3)cn2)CC1,-4.2
18,O=C(NC[C@H]1C[C@@H]2CCN1C[C@@H]2CN1CCCCC1)Nc1ccsc1,-16
19,CCN1CC2(CC1=O)CN(Cc1cnn(C)c1)CCN(C(=O)C(C)C)C2 (centres undefined),-4.6
20,CCS(=O)(=O)N1CCc2ccc(NC(=O)NC(C)(C)C)cc21,-13.6
21,CCCNCc1ccc(-c2ccnc3[nH]ccc23)cc1,29.1
22,COc1ccc2cc(C3CN(C(=O)N(C)C)CCO3)ccc2c1 (centres undefined),26.1
23,COc1c(CNCCC(=O)NC2CCCC2)c(C(C)C)nn1C,0.44

row,SMILES,cytotoxicity at 70.5 h [%]
1,Cc1cc(NCC2(O)CCOCC2)c2ccccc2n1,-4.68
2,CN1CCN(Cc2cccnc2)C2(CCN(C3CCOCC3)C2)C1=O (centres undefined),-5.52
3,CC(C)c1ccc(NS(=O)(=O)CC2=NC(=O)n3cccc3C2=O)cc1,-18.1
4,CS(=O)(=O)N1CCC(NCC2(N3CCOCC3)CCCCC2)CC1,-12.3
5,c1csc(-c2noc(C3CNC3)n2)c1,-8.98
6,CC(C)Cc1cc(NC(=O)c2ccccn2)n(C)n1,-10.2
7,Cc1nccc(C2CCCN(C(=O)c3cncnc3)C2)n1 (centres undefined),-5.03
8,CCC(C)N(Cc1cccnc1)C(=O)c1ncccc1O (centres undefined),-8.41
9,COc1ccc(CN(C)[C@@H]2COC[C@H]2c2ccc(F)cc2)c(OC)c1,0.309
10,CCn1nc2c(cc1=O)CN(Cc1nc(-c3ccsc3)no1)CC2,-22.4
11,COc1cc2c(c(OC)c1OC)CCN(CCn1cncn1)CC2,-8.44
12,Cc1ccccc1C(C(=O)NCCn1cccc1)N(C)C (centres undefined),-9.04
13,CCc1cnc(CN(C)C2CCN(CC(=O)Nc3nccs3)C2)o1 (centres undefined),23
14,CC(NCC(=O)Nc1ccc(N2CCCCCC2)cc1)c1cccs1 (centres undefined),-8.9
15,CC1CCCN(C(=O)CNC(=O)c2ccoc2)C1 (centres undefined),49.9
16,COCCN(C)C[C@@H]1CN(C(=O)c2ccc(SC)cc2)C[C@@H]1CO,12.6
17,Cc1nn(C)c(Cl)c1C(=O)NCC1(C(N)=O)CCOCC1,-11.7
18,CC(=O)Nc1ccc(C(=O)Nc2cnc3n2CCCC3)cc1C,5.91
19,Cc1ccn(CCNc2ncnc3c2CCN(S(C)(=O)=O)CC3)n1,1.8
20,CN(C1CCCN(c2ccccn2)C1)S(=O)(=O)N1CCOCC1 (centres undefined),-2.35
21,COc1ccccc1C1CCN(C(=O)c2ncccc2OC(C)C)C1 (centres undefined),-1.72
22,Cc1nc(CN2CCC(C(=O)O)(n3ccc(-c4ccco4)n3)CC2)co1,-7.1
23,CC(C)CCn1cc(C(C(=O)O)N2CCSCC2)cn1 (centres undefined),-12.4

row,SMILES,cytotoxicity at 70.5 h [%]
1,Cn1c(C2CC2)nc2c1CCN(CC(=O)Nc1nncs1)C2,-18.2
2,CC(C)N1C(=O)CO[C@H]2CCN(C(=O)c3ccc4c(c3)CCC4)CC[C@@H]21,-3.57
3,COc1ccc(CN2CCO[C@H]3CN(C4CCCC4)CC[C@H]3C2=O)cc1,-1.08
4,N#Cc1ccc(Cl)cc1N1CCC(OC2CCOCC2)CC1,-3.88
5,CC(=O)Nc1nc(C(=O)N2CCCCC2Cn2cc(C)cn2)cs1 (centres undefined),5.83
6,CCn1cc(NC(=O)NCC(c2ccc(OC)cc2)N(C)C)cn1 (centres undefined),-5.2
7,Cn1cccc1C(=O)N1CCCCC1c1[nH]ncc1S(C)(=O)=O (centres undefined),-5.18
8,CCC1c2cccn2CCN1S(=O)(=O)N1CCOCC1 (centres undefined),11.2
9,Cc1ncc2c(c1-c1noc(-c3cscn3)n1)CCNC2,7.48
10,Cc1cc(NC(=O)N(CCC#N)CCCN(C)C)ccc1F,-2.44
11,CCn1nc2ccc(S(=O)(=O)N3CCSCC3)cn2c1=O,-9.47
12,Cc1ccc(Cl)cc1N1CCN(CC(=O)NC(C)c2ccco2)CC1 (centres undefined),1.33
13,COCCn1ccnc1C1CCN(c2cccc(C(=O)O)n2)CC1,-3.81
14,Cc1cc(C2CCCN2C(=O)NCc2cccnc2)on1 (centres undefined),-7.94
15,Cn1cc(-c2nc(C3CCN(S(C)(=O)=O)CC3)cc3c2ncn3C)cn1,23.5
16,Cn1cc(Cl)cc1C(=O)N1CCC2(CCCN(CC3CCC3)C2=O)C1 (centres undefined),18.1
17,N#Cc1c(N2CCOCC2)nsc1-c1cccnc1,-4.2
18,COc1ccc(C(CC(=O)O)NC(=O)CCc2cccs2)cc1OC (centres undefined),4.75
19,COC(=O)c1ccn(COc2ccccc2Cl)n1,-9.21
20,Clc1ccc(CN(CCN2CCOCC2)Cc2cccnc2)c(Cl)c1,-5.57
21,Cc1ccc(SCC(=O)NS(=O)(=O)c2ccc3c(c2)OCCO3)cc1,-1.91
22,CCc1nc(C2CCCN2Cc2nc(C3CC3)no2)no1 (centres undefined),-5.95
23,CN(C)C(C(=O)Nc1nccs1)c1c(F)cccc1Cl (centres undefined),-0.246

row,SMILES,cytotoxicity at 70.5 h [%]
1,Cc1nc(C)c(-c2nnc(SCC(=O)O)n2C(C)c2ccccc2)o1 (centres undefined),-2.71
2,CCc1n[nH]c(SCC(=O)N2CCc3[nH]nc(C4CCC4)c3C2)n1,-0.161
3,COC(=O)COn1c(OC)nc2ccccc2c1=O,-11.7
4,c1ccc(CCCN2CCOC(Cn3cccn3)C2)cc1 (centres undefined),-6.46
5,CCc1cc(C(=O)N2CC[C@@H](c3ccc4ccccc4c3)[C@H](O)C2)[nH]n1,35
6,O=C(CSCC1CC1)N1CCCN(Cc2ccc(F)cc2)CC1,-11.1
7,CC(NC(=O)Nc1nccs1)c1ccncc1 (centres undefined),-10.5
8,COCC1CC2(CCNCC2)CN1Cc1csc(C)n1 (centres undefined),-8.39
9,COc1ncccc1C(=O)N1CCN(C(=O)Cc2ccccn2)CC1,6.6
10,Brc1csc(CNCc2nnc3n2CCC3)c1,-12.4
11,CCn1nc(C)c(CCNC(=O)C2CCCN(C(=O)COC)C2)c1C (centres undefined),18
12,CCOc1ncccc1NC(=O)c1cc(C)c(C)s1,-7.38
13,CC(C)Cc1nc(CSC2CCCN(c3cnn(C)c3)C2=O)no1 (centres undefined),-1.14
14,OCCNc1cc(-c2nccnc2N2CCCC2)c2cc[nH]c2n1,34
15,COc1ccc(Cl)cc1CCNC(=O)NCc1ncnn1C,-13.1
16,N#Cc1ccccc1N1CCCN(C(=O)CCc2nccs2)CC1,-21.6
17,COCCNC(=O)N1CCCCC1CNC(=O)Nc1ccccc1 (centres undefined),-3.88
18,Cc1cc(C(=O)N2CCC3(CC2)C(=O)NCCN3CC(C)C)c(C)o1,-2.92
19,CCc1nnsc1C(=O)N1CCCN(Cc2ccc(F)cc2)CC1,-9.04
20,COc1ccc(CC(=O)N2Cc3nccn3CC(CN(C)C)C2)cc1 (centres undefined),20.5
21,O=C1CC(c2ccncc2)C2(CCN(C(=O)c3ccc[nH]3)CC2)N1 (centres undefined),23.7
22,CC(C)OCCCNC(=O)CS(=O)(=O)Cc1ccc(Cl)c(Cl)c1,-9.73
23,Cc1nc2ccccc2n1Cc1cc(C(=O)N2C[C@@H](C)O[C@@H](C)C2)no1,-8.42

row,SMILES,cytotoxicity at 70.5 h [%]
1,O=S(=O)(Nc1cnn(C2CCOCC2)c1)c1c(F)cccc1F,-1.01
2,CC(=O)N1CCC(c2nnc3ccc(C(=O)NCC(C)C)cn23)C1 (centres undefined),-12.8
3,CN1CC2(CCN(C(=O)c3ccc4c(=O)n(C)cnc4c3)C2)OC1=O (centres undefined),8.11
4,FC1(F)CCNCC12CCN(c1ccccn1)C2 (centres undefined),9.9
5,CCN(Cc1noc(C)n1)C(=O)C(c1ccc(C)cc1)N(C)C (centres undefined),-0.785
6,COCc1nn(CC2CC2)c2c1CN(Cc1cccs1)CC2,-8.23
7,CCN(CC)C(=O)c1nc2c(s1)CCN(C(=O)CCC(=O)OC)CC2,3.92
8,Cc1nc(CN2C(=O)COC3(CCN(C)CC3)C2C)cs1 (centres undefined),4.23
9,COc1cccc(CCC(=O)Nc2cnc3c(c2)c(C)nn3C)c1OC,-14.1
10,Cc1nccn1[C@@H]1CC[C@@H](N(C)S(=O)(=O)c2ccccc2F)[C@H]1O,-3.2
11,CCn1ccnc1CN(C)Cc1nc(Cc2ccccc2F)no1,7.48
12,CC(=O)N1CCc2cc(Cl)cc(Cl)c2C1,-5.27
13,Cc1noc(Cl)c1CC(=O)N1CCCC(n2cccn2)C1 (centres undefined),-4.55
14,O[C@H]1[C@H](NCCc2cnccn2)c2ccccc2C12CCNCC2,-3.75
15,COc1cccc(NC(=O)NCC2CCCN(C3CCOCC3)C2)c1 (centres undefined),-8.3
16,CNc1ncc(CN(C)C(=O)CCc2cc3n(n2)CCCNC3)cn1,-9.14
17,O=C(c1ccco1)N1CC2(CCNCC2)c2cc(Cl)ccc21,27.2
18,Cc1cc(C2CCCN(CCC(=O)N3CCc4ccccc43)C2)n[nH]1 (centres undefined),-4.23
19,Cc1nccn1-c1ccc(CNC(=O)c2ccc(O)nc2)cn1,-9.46
20,Cc1nn(CC(C)C)c(N(C)C)c1CNCCS(C)(=O)=O,5.47
21,CCc1ccc(NC(=O)N2C[C@H]3C[C@H](C(=O)NC(C)C)[C@@H](C2)O3)cc1,-7.8
22,O=C(CN1C(=O)c2ccccc2CS1(=O)=O)c1ccc(Cl)cc1,7.63
